Laboratory results reported in patent US5753516A, “Screening method for ligands of the EBI-1 receptor” (priority 1995, dated 1998).

Assays:
[1] = target: EBI1, novel lymphocyte R7G opioid binding protein (human); test: radioligand filtration assay on membranes of EBI1-transfected COS cells; nonspecific binding with 50 µM naloxone
[2] = system: COS (Vector Control); test: cAMP accumulation in COS cells (vector control); format: cell-based, monkey; details: COS (Vector Control); MET-ENK 0.01 nM, naloxone 10 μM, forskolin 0.1 μM; controls 40.2 and 38.8
[3] = target: T1, EBI1 (Homo sapiens, UniProt P32248)
T1 sequence (P32248 25-378): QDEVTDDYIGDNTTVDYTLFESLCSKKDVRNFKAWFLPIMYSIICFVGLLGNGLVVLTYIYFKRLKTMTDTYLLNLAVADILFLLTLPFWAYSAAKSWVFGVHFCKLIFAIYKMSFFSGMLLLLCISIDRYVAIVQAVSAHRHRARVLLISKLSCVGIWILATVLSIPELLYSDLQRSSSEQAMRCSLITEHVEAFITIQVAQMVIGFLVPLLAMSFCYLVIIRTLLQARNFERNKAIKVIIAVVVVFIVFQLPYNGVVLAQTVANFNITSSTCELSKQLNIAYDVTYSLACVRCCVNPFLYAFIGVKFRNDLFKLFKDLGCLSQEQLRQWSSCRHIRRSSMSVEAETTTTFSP

[4] = system: human T cells; test: Migration of human peripheral blood T cells; format: cell-based
[5] = system: Jurkat cells; test: [Ca^2+ ]i response of Jurkat cells (Indo-1, flow cytometry); format: cell-based, human
Protocol: FIG. 14, Panel A and B. Methionine enkephalin and opiate receptor agonists selective for […] stimulate transmembrane signaling in Jurkat cells. Cells were labeled with Indo-1, washed twice in serum-free medium and held at 4° C. until analyzed. Indo-1 fluorescence was measured using flow cytometry as previously described (Heagy et al., 1992; Ledbetter et al., 1987; Chang et al., 1989; Rabinovitch et al., 1986). The fluorescence for nonstimulated cells (measured in medium, alone) was arbitrarily set at 1.0. Data are presented as per cent increase in the response [(r-baseline) x 100%]. Baseline [Ca^2+ ]i value measured for Jurkat cells (n=4) was 80±40 nM. Baseline Panel A, Jurkat cell response to MET-ENK (0.1 nM, 10 nM and 1 μM) and to the d- selective agonist Dermenkephalin (10 nM). Panel B, Jurkat cell response to the d- selective agonist (D-Pen ^2,5, p Cl-Phe^4)-ENK (0.1 nM. 10 nM. 1 μM).
The inventors (Heagy et al., 1992) have previously shown that when applied to NALM 6 cells the κ-1 agonist U69,953 stimulates a rapid increase in [Ca^2+ ]i. […] In order to determine whether the sites the inventors have identified using the δ-selective agonists also elicit Ca^2+ responses the inventors measured the effects of opioid peptides and δ-selective agonists on the calcium response. […] These studies provide evidence that Jurkat cells have functional δ opiate receptor sites which stimulate transmembrane signaling via rapid increases in [Ca^2+ ]i.

[6] = target: NALM 6 cells (pre-B acute lymphoblastic leukemia cell line), enkephalin/opiate binding sites not defined as a molecule; test: flow cytometry of MET-ENK-FITC on NALM 6 cells, two-site model, low affinity site
[7] = target: NALM 6 cells (pre-B acute lymphoblastic leukemia cell line), enkephalin/opiate binding sites not defined as a molecule; test: flow cytometry of MET-ENK-FITC on NALM 6 cells, two-site model, high affinity site
[8] = target: Jurkat cells (T cell leukemia cell line), enkephalin/opiate binding sites not defined as a molecule; test: flow cytometry of MET-ENK-FITC on Jurkat cells, two-site model, low affinity site
[9] = target: Jurkat cells (T cell leukemia cell line), enkephalin/opiate binding sites not defined as a molecule; test: flow cytometry of MET-ENK-FITC on Jurkat cells, two-site model, high affinity site
[10] = system: LAZ 221 cells; test: Migration (chemotaxis) of LAZ 221 pre-B ALL cells; format: cell-based, human; details: LAZ 221, peptide 100 nM; spontaneous locomotion 1886
[11] = system: LAZ 388 cells; test: Migration (chemotaxis) of LAZ 388 EBV-transformed B cells; format: cell-based, human; details: LAZ 388, peptide 100 nM; spontaneous locomotion 1938
[12] = system: NALM 6 cells; test: Migration (chemotaxis) of NALM 6 pre-B ALL cells; format: cell-based, human; details: for cell migration (cell counts): NALM 6, peptide 100 nM, spontaneous locomotion 2190; for concentration inducing migration: NALM 6 and LAZ 221; for effect on migration of pre-B ALL cells: NALM 6 and LAZ 221 cells
[13] = system: human T cells; details: Heagy et al., 1990; cited from earlier work
[14] = system: lymphocytes and macrophages; details: animals; cited from earlier work
[15] = system: leukocytes; details: Lu et al., 1960; cited from earlier work
[16] = system: Jurkat cells

In the case of “DPDPE ([D-Pen2,5]enkephalin), delta-selective opiate receptor agonist (peptide)”, the Kd [1] is reported as 0.2 nM.

Work on `C=C[C@@]1(C)CC(=O)[C@]2(O)[C@@]3(C)[C@@H](O)CCC(C)(C)[C@@H]3[C@H](O)[C@H](OC(C)=O)[C@@]2(C)O1` [Forskolin] yielded a cAMP [2] of 130.5 fmoles/cell × 10^3 and a cAMP [3] of 234.8 fmoles/cell × 10^3.

With `CC(C)C[C@H](NC(=O)[C@H](Cc1ccccc1)NC(=O)CNC(=O)CNC(=O)[C@@H](N)Cc1ccc(O)cc1)C(=O)O` [LEU-ENK] the “human lymphocyte / T cell migration” value [4] was “stimulate human lymphocyte migration” and the “lowest concentration at which T cell migration was detectable” value ([4]; human peripheral blood T cells) was 0.1 pM.

With (D-Pen^2,5, p-Cl-Phe^4)-ENK the “[Ca^2+ ]i response” value [5] was “stimulated the Ca^2+ response” and the “concentration eliciting [Ca^2+ ]i response” value [5] was 10^-8 to 10^-6 M.

Work on “fluorescein derivative of methionine enkephalin (MET-ENK-FITC) (peptide)” yielded a Kd [6] of 318 nM, a Kd [7] of 1.01 nM and a Kd [8] of 181 nM. For the same molecule, the Kd [9] was 1.36 nM.

In the case of `C[C@@H](NC(=O)[C@@H](N)Cc1ccc(O)cc1)C(=O)NCC(=O)N(C)[C@@H](Cc1ccccc1)C(=O)NCCO` [DAMGO, [D-Ala^2, Me-Phe^4, Gly(ol)^5]-enkephalin], the “cell migration (cell counts)” value [10] is reported as 4602 cell counts, the “cell migration (cell counts)” value [11] is reported as 2043 cell counts and the “cell migration (cell counts)” value [12] is reported as 5070 cell counts. For the same molecule, the concentration inducing migration [12] was ≤ 10^-10 M, the “effect on migration of pre-B ALL cells” value [12] was “enhanced, albeit modestly, the migration of NALM 6 and LAZ 221 cells” and the “human T cell migration” value [13] was “potent stimulants for the migration of isolated human T cells”.

In the case of `CN1CC[C@]23c4c5ccc(O)c4O[C@H]2[C@@H](O)C=C[C@H]3[C@H]1C5` [morphine], the “lymphocyte trafficking in vivo” value [14] is listed as “enhance lymphocyte trafficking” and the “leukocyte changes in rabbits” value [15] is listed as “caused a leukocytosis in parallel with a depletion of lymphocyte blasts and other hematopoietic precursors in the bone marrow”.

In the case of `CC(C)C[C@@H](NC(=O)[C@H](Cc1ccccc1)NC(=O)CNC(=O)[C@@H](C)NC(=O)[C@@H](N)Cc1ccc(O)cc1)C(=O)O` [DADLE, [D-Ala^2,D-Leu5]-enkephalin], the “cell migration (cell counts)” value [10] is reported as 4405 cell counts, the “cell migration (cell counts)” value [11] is reported as 2283 cell counts and the “specific binding, % of total” value [16] is reported as 50-60%. The “cell migration (cell counts)” value [12] was 6240 cell counts, the concentration inducing migration [12] was ≤ 10^-10 M and the “effect on migration of pre-B ALL cells” value [12] was “enhanced, albeit modestly, the migration of NALM 6 and LAZ 221 cells”. For the same molecule, the “human T cell migration” value [13] was “potent stimulants for the migration of isolated human T cells”.

With `CSCC[C@H](NC=O)C(=O)N[C@@H](CC(C)C)C(=O)N[C@@H](Cc1ccccc1)C(=O)O` [FMLP] the “cell migration (cell counts)” value [10] was 2906 cell counts, the “cell migration (cell counts)” value [11] was 1914 cell counts and the “cell migration (cell counts)” value [12] was 3198 cell counts. For the same molecule, the “effect on migration of pre-B ALL cells” value [12] was “had no effect on the migration of the pre-B ALL cells”.
